Results as given in ChEMBL document CHEMBL4393679, “Structure-Guided Drug Design of 6-Substituted Adenosine Analogues as Potent Inhibitors of Mycobacterium tuberculosis Adenosine Kinase” (J Med Chem, 2019).

Assays:
Format in all cases: functional
[1] = system: Mycobacterium tuberculosis; test: Antimycobacterial activity against Mycobacterium tuberculosis H37Rv harboring G262S mutant by microplate alamar blue assay
[2] = system: Mycobacterium tuberculosis; test: Antimycobacterial activity against Mycobacterium tuberculosis H37Rv harboring D251N mutant by microplate alamar blue assay
[3] = system: Mycobacterium tuberculosis; test: Antimycobacterial activity against Mycobacterium tuberculosis H37Rv harboring Q172P mutant by microplate alamar blue assay

Measured: MIC

Nc1ncnc2c1c(I)cn2[C@@H]1O[C@H](CO)[C@@H](O)[C@H]1O [IODOTUBERCIDIN]
>100 µM: all assays above
